Results taken from patent publication EP0608419A1, “TRANSOCULAR PREPARATION” (FUJISAWA PHARMACEUTICAL CO., LTD., priority 1991, dated 1993).
Where two headings read alike, the source gives them in different places.

Experiments:
[1] = Concentration of test compound in eye tissue and blood after continuous subcutaneous administration by implanted mini-pump (EIA); type: in vivo, JW (clean) strain female rabbits; conditions: sc, 2.5 mg/animal/day, read-out: Mean concentration in tissue ± S.E.
Protocol: (§1) c The experiment was carried out using JW (clean) strain female rabbits (body weight: 2.3 to 2.6 kg), each test group containing three rabbits. In this experiment, the rabbits were allowed to feed themselves and drink water freely both before and after each administration.
On the other hand, in case of continuous subcutaneous administration, after the rabbits were anesthetized by injection of "Nembutal" (Trademark, 0.5 to 0.6 ml/kg i.v.), they were clipped their back side hair and then were incised their clipped parts about 3 cm long with a surgical knife. […] Subsequently, the incised parts of the rabbits were sutured with silk thread, and then the rabbits were brought back to their cage. In this case, total dosage was 2.5 mg/rabbit/day. The day when the mini-pump was implanted was defined as "Day 0". On Day 5, the rabbits were anesthetized by injection of "Nembutal" (Trademark) into the ear vein to bleed to death, and then the eyeballs were taken out therefrom. In this experiment, blood was collected for measuring a concentration of the test compound in blood on each Day 1, 4 and 5.
(§2) The eyeballs taken out were washed with physiological saline solution under ice-cooling, and subsequently divided into various parts (i.e. cornea, aqueous humor in anterior chamber of eye, iris, lens, vitreum, retinochoroid and sclera). After measuring the weight of each part, phosphate buffer solution (pH 7.4) was added thereto and then the parts were homogenized using a glass-made "Potter-type homogenizer" (Trademark).
(§3) The determination of a concentration of the test compound in each sample was carried out by the two-step Enzyme-linked immunosorbent assay (EIA) using purified polyclonal antibody against the test compound.

[2] = Concentration of test compound in eye tissue and blood after transocular administration of ophthalmic solution (EIA); type: in vivo, JW (clean) strain female rabbits; conditions: topical or ocular, read-out: Mean concentration in tissue ± S.E.
Protocol: The resultant preparation was filled in an instillator.
as §1
In case of transocular administration of ophthalmic solution, the rabbits were fixed on the cangue fixer and applied to each eye with one drop (about 0.05 ml) of the above ophthalmic solution using an instillator. The administration was repeated five times at 5-minute intervals. After the final administration, the rabbits were brought back to their cage. In these administrations, total dosage was 1 mg/rabbit. At 30 minutes after the final administration, blood was collected from the ear vein of the rabbits. Immediately, the rabbits were anesthetized by injection of "Nembutal" (Trademark) into the ear vein to bleed to death by cutting off their head and then the eyeballs were taken out therefrom.
as §2, §3

[3] = system: intraocular vascularization; assay: Suppression of induced intraocular vascularization (cupric chloride pellet and aminoadipic acid) by eye drops, histological observation; type: in vivo, rabbits (Dutch); conditions: 2 mg/ml in isotonic phosphate buffer solution (pH 8), eye drops twice a day for 12 days; both eyes of five rabbits
Protocol: Both eyes of five rabbits (Dutch) were used for this experiment. Into the vitreum of the rabbits, 0.2 ml of sterilized air was injected. […] At the same time as transplantation, 1 mg of aminoadipic acid dissolved in 0.2 ml of physiological saline solution was injected into the vitreum, by which vascularization in the eyes (i.e. in the vitreum) was induced. Twenty-four hours later, isotonic phosphate buffer solution (pH 8, 2 mg/ml) which contained the same test compound used in Example 1 was administered drop by drop to each rabbit. The same administration was repeated twice a day for consecutive 12 days. After the final administration on the 12th day, the eyeballs were taken out therefrom and observed histologically to find whether the vascularization was suppressed or not.

concentration at 120 h ([1]; Aqueous humor in anterior chamber of eye, Day 5 of continuous subcutaneous administration (2.5 mg/rabbit/day), n = 6): 0.79 ± 0.62 ng/g | concentration at 120 h ([1]; Cornea, Day 5 of continuous subcutaneous administration (2.5 mg/rabbit/day) by mini-pump, n = 6): 2.87 ± 0.52 ng/g | concentration at 120 h ([1]; Lens, Day 5 of continuous subcutaneous administration (2.5 mg/rabbit/day), n = 6): 0.2 ± 0.08 ng/g | concentration at 120 h ([1]; Retinochoroid, Day 5 of continuous subcutaneous administration (2.5 mg/rabbit/day), n = 6): 0.6 ± 0.26 ng/g | concentration at 120 h ([1]; Sclera, Day 5 of continuous subcutaneous administration (2.5 mg/rabbit/day), n = 6): 1.06 ± 0.27 ng/g | concentration at 120 h ([1]; Vitreum, Day 5 of continuous subcutaneous administration (2.5 mg/rabbit/day), n = 6): 1.19 ± 0.23 ng/g | concentration at 24 h ([1]; Whole blood, Day 1 (n=3), continuous subcutaneous administration (2.5 mg/rabbit/day)): 30.6 ± 6.13 ng/g | concentration at 96 h ([1]; Whole blood, Day 4 (n=3), continuous subcutaneous administration (2.5 mg/rabbit/day)): 13.7 ± 9.74 ng/g | concentration at 120 h ([1]; Whole blood, Day 5 (n=3), continuous subcutaneous administration (2.5 mg/rabbit/day)): 22.5 ± 4.12 ng/g | concentration at 0.5 h ([2]; Aqueous humor in anterior chamber of eye, 30 min. after transocular administration of ophthalmic solution (total 1 mg/rabbit), n = 6): 141 ± 59.7 ng/g | concentration at 0.5 h ([2]; Cornea, 30 min. after transocular administration of ophthalmic solution (2 mg/ml, total 1 mg/rabbit), n = 6): 1.56 ± 0.73 ng/g | concentration at 0.5 h ([2]; Lens, 30 min. after transocular administration of ophthalmic solution (total 1 mg/rabbit), n = 6): 12.4 ± 2.11 ng/g | concentration at 0.5 h ([2]; Retinochoroid, 30 min. after transocular administration of ophthalmic solution (total 1 mg/rabbit), n = 6): 40.2 ± 9.4 ng/g | concentration at 0.5 h ([2]; Sclera, 30 min. after transocular administration of ophthalmic solution (total 1 mg/rabbit), n = 6): 0.78 ± 0.78 ng/g | concentration at 0.5 h ([2]; Vitreum, 30 min. after transocular administration of ophthalmic solution (total 1 mg/rabbit), n = 6): 9.99 ± 2.37 ng/g | concentration at 0.5 h ([2]; Whole blood (n = 3), 30 min. after transocular administration of ophthalmic solution (total 1 mg/rabbit)): 19.6 ± 4.22 ng/g
SMILES: CNC(=O)OC1CCC2(CO2)C(C2(C)OC2CC=C(C)C)C1OC (stereo not drawn) [test compound, 6-Methylcarbamoyloxy-5-methoxy-4-[2-methyl-3-(3-methyl-2-butenyl)oxiranyl]-1-oxaspiro[2.5]octane]
eyeballs in which intraocular vascularization was suppressed thoroughly [3]: 42.9% | eyeballs in which the vascularization was suppressed partially or thoroughly [3]: 85.7%
